This is an account of results in patent US4383113A, “Agricultural sulfonamides” (E. I. Du Pont de Nemours and Company, priority 1981, dated 1983).

What all share (experiment): Test A post-emergence
What all share (set-up): key: 0 = no effect, 10 = maximum effect; letter = response symbol

In one assay the test system is barnyardgrass. Type of assay: in vivo, Echinochloa crusgalli. The gist of the method: (§1)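 Seeds and tubers were treated preemergence in a growth medium with compound in a nonphytotoxic solvent, against untreated controls; emerged plants such as two-leaf barnyardgrass and five-leaf cotton were sprayed postemergence, against solvent-sprayed controls. After sixteen days in a greenhouse, response was rated visually from 0 to 10.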

The next assay relates to crabgrass. It is filed as in vivo, Digitaria spp. In a few lines:
as §1

A further assay has as its system rice. Type of assay: in vivo. The gist of the method:
as §1

The test system of another assay is corn. Type of assay: in vivo. In a few lines: as §1
For another assay, the system named is soybean. Type of assay: in vivo. In a few lines:
as §1

A further assay has as its system sorghum. It is filed as in vivo. The gist of the method:
as §1

For the next assay, the system named is wheat. Type of assay: in vivo. The gist of the method: as §1
A further assay relates to wild oats. Type of assay: in vivo, Avena fatua. The gist of the method: as §1
A further assay relates to nutsedge. It is filed as in vivo, Cyperus rotundus. In a few lines: as §1
The next assay has as its system morningglory. It is filed as in vivo, Ipomoea spp. In a few lines: as §1
The test system of a further assay is cocklebur. It is filed as in vivo, Xanthium spp. In a few lines: as §1
For another assay, the system named is cassia. It is filed as in vivo, Cassia tora. The gist of the method: as §1
The next assay relates to bush bean. Type of assay: in vivo, bush beans. Conditions: 0.4 kg/ha.
Another assay relates to cotton. It is filed as in vivo. To be noted: 0.4 kg/ha. The gist of the method:
as §1

As for `CCCCOC(=O)c1ccccc1S(=O)(=O)NC(=O)Nc1nc(C)cc(OC)n1` [drawing 440], the response rating in the assay with barnyardgrass (0.4 kg/ha) is on record as 10C; in the assay on barnyardgrass (2 kg/ha), 10C; in the assay on crabgrass (0.4 kg/ha), 3G; in the assay with rice (2 kg/ha), 8C; in the assay with corn (2 kg/ha) it was 9C; in the assay with soybean (2 kg/ha) it was 9C. In addition, the response rating in the assay with sorghum (2 kg/ha) is on record as 9C; in the assay on wheat (2 kg/ha), 8C; in the assay with wild oats (0.4 kg/ha) it was 8G; in the assay on nutsedge (2 kg/ha) it was 9C; in the assay with morningglory (0.4 kg/ha), 9C; in the assay with morningglory (2 kg/ha) it was 10C. The response rating is reported as 9C in the assay on cocklebur (0.4 kg/ha), 10C in the assay on cocklebur (2 kg/ha) and 9C in the assay with cassia (2 kg/ha).
As for `CCCCCCCCCCOC(=O)c1ccccc1S(=O)(=O)NC(=O)Nc1nc(C)nc(OC)n1` [drawing 430], the response rating with barnyardgrass (0.4 kg/ha) is recorded as 2H; in the assay with crabgrass (0.4 kg/ha) it was 0; in the assay on rice (0.4 kg/ha), 6G; in the assay with corn (0.4 kg/ha) it was 7H; in the assay on soybean (0.4 kg/ha), 6H; in the assay with wheat (0.4 kg/ha), 0. Moreover, the response rating in the assay on wild oats (0.4 kg/ha) is 0; with nutsedge (0.4 kg/ha), 2G.
Consider `COC(=O)c1cc(Cl)c(Cl)cc1S(=O)(=O)NC(=O)Nc1nc(C)cc(OC)n1` [drawing 452], for which the response rating with barnyardgrass (0.4 kg/ha) is reported as 7H; with crabgrass (0.4 kg/ha), 2G; in the assay on rice (0.4 kg/ha), 2C; in the assay with corn (0.4 kg/ha), 2G; in the assay on sorghum (0.4 kg/ha) it was 5G; with wheat (0.4 kg/ha), 0. The response rating in the assay with wild oats (0.4 kg/ha) amounted to 0; in the assay on nutsedge (0.4 kg/ha) it was 6G; in the assay on cassia (0.4 kg/ha), 2C.
In the case of `CCCCCCCCCCOC(=O)c1ccccc1S(=O)(=O)NC(=O)Nc1nc(OC)cc(OC)n1` [drawing 427], the response rating in the assay on crabgrass (0.4 kg/ha) was 2G; in the assay with rice (0.4 kg/ha), 8G; with soybean (0.4 kg/ha) it was 1H; in the assay with sorghum (0.4 kg/ha), 9G; with wheat (0.4 kg/ha), 1C; in the assay with wild oats (0.4 kg/ha), 1C. Besides, the response rating in the assay with nutsedge (0.4 kg/ha) was 2G; in the assay with morningglory (0.4 kg/ha) it was 1C; with cassia (0.4 kg/ha), 5G.
With `CCOCCSc1cc(C)nc(NC(=O)NS(=O)(=O)c2ccccc2C(=O)OC)n1` [drawing 469], the response rating is given as 8G in the assay with rice (0.4 kg/ha); 9H in the assay with corn (0.4 kg/ha); 9G in the assay with sorghum (0.4 kg/ha); 6G with wheat (0.4 kg/ha); 8G in the assay with nutsedge (0.4 kg/ha); 9C with bush bean. In addition, the response rating in the assay with cocklebur (0.4 kg/ha) came out at 2C.
Take `COc1nc(NC(=O)NS(=O)(=O)c2ccccc2C(=O)OCCCl)nc(OC)n1` [drawing 422]: the response rating in the assay with crabgrass (0.4 kg/ha) was 2C; in the assay on rice (0.4 kg/ha) it was 6G; in the assay with cotton, 9C; in the assay on wheat (0.4 kg/ha), 1C; in the assay on nutsedge (0.4 kg/ha), 10C; in the assay with bush bean, 9C. In addition, the response rating with morningglory (0.4 kg/ha), in the assay on cocklebur (0.4 kg/ha) and with cassia (0.4 kg/ha) was 10C each time.
With `COCCCOc1cc(C)nc(NC(=O)NS(=O)(=O)c2ccccc2C(=O)OC)n1` [drawing 470], the response rating in the assay with barnyardgrass (0.4 kg/ha) turned out to be 9C; in the assay with crabgrass (0.4 kg/ha), 9C; in the assay on rice (0.4 kg/ha), 8C; in the assay on corn (0.4 kg/ha) it was 9C; with soybean (0.4 kg/ha) it was 8C; in the assay with sorghum (0.4 kg/ha) it was 9C. For the same compound, the response rating with nutsedge (0.4 kg/ha), in the assay on bush bean and in the assay with cassia (0.4 kg/ha) was 9C throughout.
`COC(=O)c1ccccc1S(=O)(=O)NC(=O)Nc1nc(OC)nc(OC)n1` [drawing 416]: the response rating in the assay with barnyardgrass (0.4 kg/ha) is 10C; in the assay on crabgrass (0.4 kg/ha), 9C; with rice (0.4 kg/ha) it was 10C; with corn (0.4 kg/ha) it was 10C; with soybean (0.4 kg/ha), 9C; in the assay with sorghum (0.4 kg/ha), 9C. The response rating in the assay on nutsedge (0.4 kg/ha) is reported as 9C; with bush bean it was 9C; in the assay on morningglory (0.4 kg/ha), 10C; in the assay with cocklebur (0.4 kg/ha), 9C; in the assay with cassia (0.4 kg/ha) it was 9C.
As for `C=CCOC(=O)c1ccccc1S(=O)(=O)NC(=O)Nc1nc(C)nc(OC)n1` [drawing 451], the response rating in the assay with barnyardgrass (0.4 kg/ha), in the assay with rice (0.4 kg/ha), in the assay with corn (0.4 kg/ha), in the assay on soybean (0.4 kg/ha), in the assay with sorghum (0.4 kg/ha) and in the assay on wheat (0.4 kg/ha) was 9C throughout. Besides, the response rating is 9C in the assay with wild oats (0.4 kg/ha); 9C with bush bean; 10C with morningglory (0.4 kg/ha); 10C in the assay with cocklebur (0.4 kg/ha); 9C with cassia (0.4 kg/ha).
Take `COc1nc(NC(=O)NS(=O)(=O)c2ccccc2C(=O)OC(C)C)nc(OC)n1` [drawing 438]: the response rating in the assay with barnyardgrass (0.4 kg/ha) amounted to 8C; in the assay on crabgrass (0.4 kg/ha) it was 6G; in the assay with rice (0.4 kg/ha) it was 8C; with cotton, 9C; with wheat (0.4 kg/ha), 2C; in the assay on wild oats (0.4 kg/ha) it was 2C. The response rating is given as 9C in the assay on nutsedge (0.4 kg/ha), 10C with morningglory (0.4 kg/ha), 10C with cocklebur (0.4 kg/ha) and 9C with cassia (0.4 kg/ha).
As for `CCCCCCCCCCOC(=O)c1ccccc1S(=O)(=O)NC(=O)Nc1nc(OC)nc(OC)n1` [drawing 429], the response rating in the assay with barnyardgrass (0.4 kg/ha) was determined as 1C; in the assay with crabgrass (0.4 kg/ha), 3G; in the assay with rice (0.4 kg/ha) it was 2G; in the assay with corn (0.4 kg/ha), 6H; with soybean (0.4 kg/ha), 7G; in the assay with sorghum (0.4 kg/ha) it was 7H. Further, the response rating in the assay with wheat (0.4 kg/ha) is given as 0; in the assay with wild oats (0.4 kg/ha), 0; in the assay on nutsedge (0.4 kg/ha), 3G; with cassia (0.4 kg/ha), 5G.
Take `COc1nc(NC(=O)NS(=O)(=O)c2ccccc2C(=O)OC2CCCCC2)nc(OC)n1` [drawing 432]: the response rating in the assay on crabgrass (0.4 kg/ha) was determined as 0; in the assay with rice (0.4 kg/ha) it was 2G; in the assay with corn (0.4 kg/ha), 6H; with sorghum (0.4 kg/ha) it was 3G; with wheat (0.4 kg/ha), 0; in the assay on wild oats (0.4 kg/ha), 0. In addition, the figures for the response rating with nutsedge (0.4 kg/ha) and with cassia (0.4 kg/ha) were 2G and 5C, respectively.
Turning to `COc1cc(C)nc(NC(=O)NS(=O)(=O)c2ccccc2C(=O)N(C)C)n1` [drawing 465], the response rating is listed as 10C in the assay on barnyardgrass (0.4 kg/ha); 9C with rice (0.4 kg/ha); 9C in the assay on corn (0.4 kg/ha); 9C with soybean (0.4 kg/ha); 9C with sorghum (0.4 kg/ha); 9C with wheat (0.4 kg/ha). Besides, the response rating in the assay on wild oats (0.4 kg/ha) stood at 9C; in the assay with morningglory (0.4 kg/ha), 10C; with cassia (0.4 kg/ha), 9C.
Regarding `COC(=O)c1ccccc1S(=O)(=O)NC(=O)Nc1nc(OC)cc(OC(C)C(=O)OC)n1` (centres unmarked) [drawing 468], the response rating in the assay on barnyardgrass (0.4 kg/ha), in the assay with crabgrass (0.4 kg/ha), in the assay with rice (0.4 kg/ha), in the assay with corn (0.4 kg/ha), in the assay on soybean (0.4 kg/ha) and in the assay on sorghum (0.4 kg/ha) was 9C in each case. Further, the response rating with wheat (0.4 kg/ha), in the assay with wild oats (0.4 kg/ha), in the assay on nutsedge (0.4 kg/ha), with bush bean, with morningglory (0.4 kg/ha) and in the assay on cassia (0.4 kg/ha) was 9C each time.
For the compound `COC(=O)c1ccccc1S(=O)(=O)NC(=O)Nc1nnc(C)c(C)n1` [drawing 417], the response rating in the assay on barnyardgrass (2 kg/ha) is 9C; in the assay on crabgrass (2 kg/ha) it was 9C; in the assay with rice (2 kg/ha), 9C; in the assay with soybean (2 kg/ha) it was 9C; in the assay with sorghum (2 kg/ha), 9C; with wheat (2 kg/ha), 10C. In addition, the response rating in the assay on wild oats (2 kg/ha), with nutsedge (2 kg/ha), in the assay with cocklebur (2 kg/ha) and in the assay with cassia (2 kg/ha) was 9C each time.
Turning to `Cc1cc(C)nc(NC(=O)NS(=O)(=O)c2ccccc2C(=O)O)n1` [drawing 444], the response rating with barnyardgrass (10 kg/ha) turned out to be 2G; in the assay with crabgrass (0.4 kg/ha), 2G; in the assay with rice (10 kg/ha), 5G; in the assay on soybean (10 kg/ha) it was 1C; in the assay on sorghum (10 kg/ha), 3G.
